Measured values published in ChEMBL document CHEMBL1131878, “Synthesis and biological evaluation of 3-heteroaryloxy-4-phenyl-2(5H)-furanones as selective COX-2 inhibitors” (Bioorg Med Chem Lett, 1999).

system: Rattus norvegicus; test: Potency in rat paw edema assay; assay type: functional; conditions: not given

| SMILES | ED50 |
| --- | --- |
| CC1(C)OC(=O)C(Oc2ccccn2)=C1c1ccc(S(C)(=O)=O)cc1 | > 10 mg/kg |
| CC1(C)OC(=O)C(Oc2ccc(Cl)cn2)=C1c1ccc(S(C)(=O)=O)cc1 | 0.75 mg/kg |
| CC1(C)OC(=O)C(Oc2ccc(Br)cn2)=C1c1ccc(S(C)(=O)=O)cc1 | 0.86 mg/kg |
| CS(=O)(=O)c1ccc(C2=C(c3ccccc3)C(=O)OC2)cc1 [ROFECOXIB] | 1.5 mg/kg |

system: not listed separately; test: Slow clearance (CL) was determined; assay type: ADME, organism-based; conditions: in vivo

| CL | SMILES |
| --- | --- |
| 4.8 | CC1(C)OC(=O)C(Oc2ccc(Cl)cn2)=C1c1ccc(S(C)(=O)=O)cc1 |

species on record: Rattus norvegicus; test: Potency by rat hyperalgesia assay; assay type: functional; conditions: not given

| SMILES | ED50 |
| --- | --- |
| CC1(C)OC(=O)C(Oc2ccc(Br)cn2)=C1c1ccc(S(C)(=O)=O)cc1 | 0.6 mg/kg |

species on record: Rattus norvegicus; test: Potency by rat adjuvant arthritis assay; assay type: functional; conditions: not given

| SMILES | ED50 |
| --- | --- |
| CC1(C)OC(=O)C(Oc2ccc(Br)cn2)=C1c1ccc(S(C)(=O)=O)cc1 | 0.2 mg/kg |

biological target: Prostaglandin G/H synthase 1 (Homo sapiens, UniProt P23219); assay type: microsomes, U-937, Microsome; conditions: not given
Sequence (P23219 whole entry): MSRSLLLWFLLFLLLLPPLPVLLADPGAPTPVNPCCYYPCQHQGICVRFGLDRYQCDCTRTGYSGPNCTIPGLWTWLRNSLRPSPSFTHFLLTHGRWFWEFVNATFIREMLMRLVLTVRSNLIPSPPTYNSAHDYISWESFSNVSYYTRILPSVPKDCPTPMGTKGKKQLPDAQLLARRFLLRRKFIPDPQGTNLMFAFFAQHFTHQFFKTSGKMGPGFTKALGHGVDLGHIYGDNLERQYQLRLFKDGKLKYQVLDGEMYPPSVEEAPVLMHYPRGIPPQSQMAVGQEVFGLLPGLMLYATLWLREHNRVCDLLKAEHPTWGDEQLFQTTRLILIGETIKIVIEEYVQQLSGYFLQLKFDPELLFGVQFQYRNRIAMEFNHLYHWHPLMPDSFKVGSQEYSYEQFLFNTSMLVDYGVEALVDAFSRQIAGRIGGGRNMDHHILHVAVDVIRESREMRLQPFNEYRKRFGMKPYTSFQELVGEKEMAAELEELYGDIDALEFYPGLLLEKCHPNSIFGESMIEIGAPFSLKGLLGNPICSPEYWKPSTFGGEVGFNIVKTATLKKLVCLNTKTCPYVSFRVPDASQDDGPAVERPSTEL

| SMILES | IC50 |
| --- | --- |
| CC1(C)OC(=O)C(Oc2ccc(C3CC3)cn2)=C1c1ccc(S(C)(=O)=O)cc1 | 3 µM |
| CC1(C)OC(=O)C(Oc2ccccn2)=C1c1ccc(S(C)(=O)=O)cc1 | > 10 µM |
| CC1(C)OC(=O)C(Oc2ncc(Cl)cc2Cl)=C1c1ccc(S(C)(=O)=O)cc1 | 0.3 µM |
| CC1(C)OC(=O)C(Oc2ncnc3ccccc23)=C1c1ccc(S(C)(=O)=O)cc1 | > 10 µM |
| CC1(C)OC(=O)C(Oc2cnccn2)=C1c1ccc(S(C)(=O)=O)cc1 | > 10 µM |
| CC1(C)OC(=O)C(Oc2ccc(Br)cn2)=C1c1ccc(S(C)(=O)=O)cc1 | 5.6 µM |
| CC1(C)OC(=O)C(Oc2ncccc2Cl)=C1c1ccc(S(C)(=O)=O)cc1 | 1 µM |
| CC1(C)OC(=O)C(Oc2ncccn2)=C1c1ccc(S(C)(=O)=O)cc1 | > 10 µM |

Now from value to compound:

| IC50 | SMILES |
| --- | --- |
| > 100 µM | CC1(C)OC(=O)C(Oc2ccncc2)=C1c1ccc(S(C)(=O)=O)cc1 |
| 4.6 µM | CC1(C)OC(=O)C(Oc2ccc(F)cn2)=C1c1ccc(S(C)(=O)=O)cc1 |
| < 0.3 µM | CC1(C)OC(=O)C(Oc2ccc3sccc3c2)=C1c1ccc(S(C)(=O)=O)cc1 |
| > 10 µM | CC1(C)OC(=O)C(Oc2cccc(Cl)n2)=C1c1ccc(S(C)(=O)=O)cc1 |
| > 30 µM | CC1(C)OC(=O)C(Oc2cccnc2)=C1c1ccc(S(C)(=O)=O)cc1 |
| 3 µM | Cc1ccc(OC2=C(c3ccc(S(C)(=O)=O)cc3)C(C)(C)OC2=O)nc1 |
| 3 µM | CC1(C)OC(=O)C(Oc2ccc3ccccc3n2)=C1c1ccc(S(C)(=O)=O)cc1 |
| 1 µM | CC1(C)OC(=O)C(Oc2ccc3[nH]ccc3c2)=C1c1ccc(S(C)(=O)=O)cc1 |
| 3 µM | CC1(C)OC(=O)C(Oc2cccc3cnccc23)=C1c1ccc(S(C)(=O)=O)cc1 |

system: not listed separately; test: Maximum concentration for the bioavailability at a dose of 20 mg/kg administered orally; assay type: ADME, organism-based; design: dose 20 mg/kg, route oral; conditions: in vivo, po

| Cmax | SMILES |
| --- | --- |
| 16 µM | CC1(C)OC(=O)C(Oc2ccc(Cl)cn2)=C1c1ccc(S(C)(=O)=O)cc1 |

species on record: Rattus norvegicus; test: Potency by rat pyrexia assay; assay type: functional; conditions: not given

| SMILES | ED50 |
| --- | --- |
| CC1(C)OC(=O)C(Oc2ccc(Br)cn2)=C1c1ccc(S(C)(=O)=O)cc1 | 0.3 mg/kg |
